From ChEMBL document CHEMBL4715692, “Design, synthesis and activity evaluation of novel peptide fusion inhibitors targeting HIV-1 gp41” (Bioorg Med Chem, 2016)
Active and inactive are the calls of the source. The calls are words filed in the database; no cut-off is given here. Where a SMILES comes first, the peptide text is derived from it. The star is where a group is joined. X1 = CCCCCCCCCCCCCCC(=O)O*

Assays:
[1] = Inhibition of gp41 in HIV1 3B infected in human HeLa-MAGI-CCR5 cells harboring reporter gene comprising HIV1 LTR in the upstream and lacZ gene of Escherichia coli in the downstream assessed as inhibition of cell-cell fusion by optical microscopy analysis; format: cell-based; settings: Human immunodeficiency virus 1, 3B
[2] = system: Human immunodeficiency virus 1; assay: Binding affinity to gp41 NHR helix in HIV1 assessed as inhibition of gp41 6-helix conformation incubated for 1 hr by SDS-PAGE analysis
[3] = system: Human immunodeficiency virus 1; assay: Binding affinity to gp41 NHR helix in HIV1 assessed as interaction between compound-gp41 5-helix causing band deviation incubated for 1 hr by SDS-PAGE analysis
[4] = system: Human immunodeficiency virus 1; assay: Binding affinity to gp41 NHR helix in HIV1 assessed as inhibition of gp41 6-helix conformation incubated for 1 hr by native PAGE analysis
[5] = system: Human immunodeficiency virus 1; assay: Binding affinity to gp41 NHR helix in HIV1 assessed as interaction between compound-gp41 5-helix causing band deviation incubated for 1 hr by native PAGE analysis

| Compound | IC50 [1] | other results |
| --- | --- | --- |
| CC[C@H](C)[C@H](NC(=O)[C@H](CC(C)C)NC(=O)[C@H](CCC(=O)O)NC(=O)[C@H](CCC(=O)O)NC(=O)[C@@H](NC(=O)[C@H](CCCCN)NC(=O)[C@H](CCCCN)NC(=O)[C@@H](NC(=O)[C@H](Cc1ccc(O)cc1)NC(=O)[C@H](CCCNC(=N)N)NC(=O)[C@H](CCC(=O)O)NC(=O)[C@@H](NC(=O)[C@H](CCC(=O)O)NC(=O)[C@H](CC(=O)O)NC(=O)[C@H](CCCNC(=N)N)NC(=O)[C@H](Cc1c[nH]c2ccccc12)NC(=O)[C@H](CC(=O)O)NC(=O)[C@H](CS)NC(=O)[C@H](Cc1c[nH]c2ccccc12)NC(=O)[C@@H](NC(=O)[C@@H](N)CCSC)[C@@H](C)O)[C@@H](C)CC)[C@@H](C)O)[C@@H](C)CC)C(=O)N[C@@H](CCCNC(=N)N)C(=O)N[C@@H](C)C(=O)N[C@@H](C)C(=O)N[C@@H](CCC(N)=O)C(=O)N[C@@H](CCC(=O)O)C(=O)N[C@@H](CC(C)C)C(=O)N[C@@H](CCC(N)=O)C(=O)N[C@@H](CCC(=O)O)C(=O)N[C@@H](CCCCN)C(=O)N[C@@H](CC(N)=O)C(=O)N[C@@H](CCC(=O)O)C(=O)N[C@@H](C)C(=O)N[C@@H](C)C(=O)N[C@@H](CC(C)C)C(=O)N[C@@H](CCCCN)C(=O)N[C@@H](CCC(=O)O)C(=O)N[C@@H](CC(C)C)C(=O)O | 159 nM |  |
| CC[C@H](C)[C@H](NC(=O)[C@H](CC(C)C)NC(=O)[C@H](CCC(=O)O)NC(=O)[C@H](CCC(=O)O)NC(=O)[C@@H](NC(=O)[C@H](CCCCN)NC(=O)[C@@H](CCCCN)NC(=O)[C@@H](NC(=O)[C@H](Cc1ccc(O)cc1)NC(=O)[C@H](CCCNC(=N)N)NC(=O)[C@H](CCC(=O)O)NC(=O)[C@@H](NC(=O)[C@H](CCC(=O)O)NC(=O)[C@H](CC(=O)O)NC(=O)[C@H](CCCNC(=N)N)NC(=O)[C@H](Cc1c[nH]c2ccccc12)NC(=O)[C@H](CC(=O)O)NC(=O)[C@H](CS)NC(=O)[C@H](Cc1c[nH]c2ccccc12)NC(=O)[C@@H](NC(=O)[C@@H](N)CCSC)[C@@H](C)O)[C@@H](C)CC)[C@@H](C)O)[C@@H](C)CC)C(=O)N[C@@H](CCCNC(=N)N)C(=O)N[C@@H](C)C(=O)N[C@@H](C)C(=O)N[C@@H](CCC(N)=O)C(=O)N[C@@H](CCC(=O)O)C(=O)N[C@@H](CC(C)C)C(=O)N[C@@H](CCC(N)=O)C(=O)N[C@@H](CCC(=O)O)C(=O)N[C@@H](CCCCN)C(=O)N[C@@H](CC(N)=O)C(=O)N[C@@H](CCC(=O)O)C(=O)N[C@@H](C)C(=O)N[C@@H](C)C(=O)N[C@@H](CC(C)C)C(=O)N[C@@H](CCCCN)C(=O)N[C@@H](CCC(=O)O)C(=O)N[C@@H](CC(C)C)C(=O)O | 57.2 nM |  |
| CCCCCCCCCCCCCCC(=O)OC(=O)[C@H](CCC(N)=O)NC(=O)[C@H](CCC(N)=O)NC(=O)[C@H](CCCNC(=N)N)NC(=O)[C@H](CCC(N)=O)NC(=O)[C@H](C)NC(=O)[C@H](CC(=O)O)NC(=O)[C@H](CCCCN)NC(=O)[C@@H](NC(=O)[C@H](CC(C)C)NC(=O)[C@H](C)NC(=O)[C@H](CCC(=O)O)NC(=O)[C@@H](NC(=O)[C@H](CC(N)=O)NC(=O)[C@H](CCCNC(=N)N)NC(=O)[C@@H](NC(=O)[C@H](Cc1ccc(O)cc1)NC(=O)[C@H](CC(N)=O)NC(=O)[C@H](CCC(=O)O)NC(=O)[C@@H](NC(=O)[C@H](CCC(=O)O)NC(=O)[C@H](CCCNC(=N)N)NC(=O)[C@H](CC(=O)O)NC(=O)[C@H](Cc1c[nH]c2ccccc12)NC(=O)[C@H](CCC(N)=O)NC(=O)[C@H](CCC(=O)O)NC(=O)[C@H](Cc1c[nH]c2ccccc12)NC(=O)[C@@H](NC(=O)[C@H](CCCCN)NC(=O)[C@H](CC(N)=O)NC(=O)[C@H](CC(N)=O)NC(=O)[C@H](Cc1c[nH]c2ccccc12)NC(=O)[C@H](CCC(=O)O)NC(=O)[C@@H](N)CCC(N)=O)[C@@H](C)O)[C@@H](C)CC)C(C)C)[C@@H](C)CC)[C@@H](C)CC (H-QEWNNKTWEQWDREIENYVRNIEALIKDAQRQQ-X1) | 222 nM |  |
| H-MTWCDWRDEIERYTKKIEELIRAAQEWQEKNEAALKEL-OH | 53 nM | inhibition [2]: Active; Activity [3]: Active; inhibition [4]: Active; Activity [5]: Active |
| H-QEWNNKTWEQWDREIENYVRNIEALIKDAQRQQ-OH | 866 nM |  |
| H-RAWVAWRNKIDRYTKKIEELIRELIRAAQELQEKNEAALKEL-OH | 338 nM |  |
| H-RAWVAWRNKIENYTRRIEELIEELIRRSQEQERRQ-OH | > 2430 nM |  |
| H-SIWNNMTWCDWRDEIEEYTKKIEELIKKSQEQASWNWF-OH | 203 nM |  |
| H-VEWNARAWVAWRNRIENYAKKIEKLIRQSQEQQ-OH | 1000 nM |  |
